Measurements: patent US20060058339A1, “Compounds modulating c-kit activity and uses therefor” (priority 2004, published 2006)

How the values were obtained:
c-kit kinase domain = biological target: T1, c-kit kinase domain (Homo sapiens, UniProt P10721); assay: c-kit kinase activity biochemical assay (AlphaScreen PY20 or 33P radiolabeled ATP detection); conditions: as measured by at least one of AlphaScreen or 33P ATP assay; ATP 10 μM in the AlphaScreen assay; read-out: IC50, inhibition of c-kit kinase activity
T1 construct: C-Kit kinase domain (starting amino acid M551, ending amino acid K949); made in house; host or cells: E. coli
T1 sequence (P10721 552-948 limits assumed): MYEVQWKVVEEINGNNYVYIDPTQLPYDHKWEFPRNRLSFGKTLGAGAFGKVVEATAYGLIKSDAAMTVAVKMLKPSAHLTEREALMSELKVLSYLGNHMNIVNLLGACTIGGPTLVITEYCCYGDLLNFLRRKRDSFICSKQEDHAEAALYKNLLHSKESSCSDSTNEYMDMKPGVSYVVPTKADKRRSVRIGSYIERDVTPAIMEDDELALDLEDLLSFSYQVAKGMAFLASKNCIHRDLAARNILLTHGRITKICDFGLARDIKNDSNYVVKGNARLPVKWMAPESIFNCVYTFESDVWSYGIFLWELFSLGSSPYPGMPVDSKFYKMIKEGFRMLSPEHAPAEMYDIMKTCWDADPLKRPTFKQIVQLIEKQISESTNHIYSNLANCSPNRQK
Text: Compounds 1-1, 1-2, 1-3, and 1-4 of Table 1 were similarly assayed using a ^33P radiolabeled ATP for detection (Upstate USA, Charlottesville, Va.).

[1] = system: M-07e cell line stimulated by SCF; assay: M-07e SCF-stimulated cell proliferation (CellTiter-Glo); format: cell-based; conditions: 72 h, 100 ng/ml SCF, three days, luminescence (ATP content), read-out: IC50, growth of SCF stimulated M-07e cells
Text: As one example, M-07e cell line (DSMZ catalog #ACC 104) is stimulated by SCF, which binds and activates c-kit tyrosine kinase receptor.

[2] = system: cells with activating c-kit mutations in the catalytic region; conditions: Ma et al., 2002, Blood 99:1741-1744; cited from earlier work

IC50 (c-kit kinase domain) | Compound | IC50 [1] | inhibition of cells with c-kit mutations in the catalytic region [2]
< 1000 nM | Clc1ccc(CNc2ccc(Cc3c[nH]c4ncccc34)cn2)cc1 [Compound 1-2, (4-chloro-benzyl)-[5-(1H-pyrrolo[2,3-b]pyridin-3-ylmethyl)-pyridin-2-yl]-amine] | < 1000 nM | –
< 1000 nM | Fc1ccc(CNc2ccc(Cc3c[nH]c4ncccc34)cn2)cc1 [Compound 1-3, (4-fluoro-benzyl)-[5-(1H-pyrrolo[2,3-b]pyridin-3-ylmethyl)-pyridin-2-yl]-amine] | – | –
< 1000 nM | Cc1ccc(CNc2ccc(Cc3c[nH]c4ncccc34)cn2)cc1 [Compound 1-4, (4-methyl-benzyl)-[5-(1H-pyrrolo[2,3-b]pyridin-3-ylmethyl)-pyridin-2-yl]-amine] | – | –
– | Cc1ccc(NC(=O)c2ccc(CN3CCN(C)CC3)cc2)cc1Nc1nccc(-c2cccnc2)n1 [ST1571] | – | did not inhibit
